Source: a melting point compilation (Tetko et al.; mined from patent text by program, amines drawn as free bases though some values may be those of a salt)

Row | Compound | melting point
1 | CC1(C)OCC(COC(=O)Cc2cccc3c(=O)cc(C4=CCCCC4)oc23)O1 (stereo not given) | 104 to 105 °C
2 | CCOC(=O)[C@@H]1CCC(=O)N1C(=O)OC(C)(C)C | 48 to 49 °C
3 | Cc1cc(Br)c(Cl)cc1Cl | 82.5 to 84 °C
4 | C=C(C)C1CCC2C3CC(=O)C4=CC(=O)CCC4(C)C3CCC12C (stereo not given) | 148 to 150 °C
5 | O=c1[nH]c(=O)n(CCCCN2CC=C(c3ccccc3)CC2)c2ccccc12 | 170 to 174 °C
6 | COCC1COc2cc3ncnc(Nc4cccc(Cl)c4)c3cc2O1 (stereo not given) | 277 to 282 °C
7 | CC(C)(C)c1ccc(Sc2ccc(Br)cc2)cc1 | 39 to 46 °C
8 | N#Cc1ccc(-c2cc3c(Cl)ncnc3[nH]2)cc1 | 296 to 297 °C
9 | CCn1cc(C2CCC(=O)CC2)c2cc(C#N)ccc21 | 124 °C
10 | Cc1cc(F)cc2nc(Cl)c(Cl)nc12 | 116 to 120 °C
11 | COc1cc(OC)cc(N2CCN(C(=S)Nc3cc(C(C)=O)c(C)nc3OC)CC2)c1 | 167 to 169 °C
12 | O=C(O)COc1cc2cc(CO)sc2c(Cl)c1Cl | 188 °C
13 | Cc1cc(C2=NN(C(=S)Cl)[C@H](C)Cc3cc4c(cc32)OCO4)cc(C)c1[N+](=O)[O-] | 216 °C
14 | Nc1ncc(-c2cc(Cl)cc(Cl)c2Cl)c(N)n1 | 246 to 249 °C
15 | CCC1Oc2cc(C(=O)OC)ccc2NC1=O (stereo not given) | 132 to 134 °C
16 | COC(=O)c1cc(Br)c(O)c(Br)n1 | 148 to 150 °C
17 | CCCCN(CCCC)CCCOc1ccc(C(=O)c2c(-c3ccccc3)n(C)c3ccc(NS(C)(=O)=O)cc23)cc1 | 116 °C
18 | Cc1nc(C(=O)NC23CC4CC(CC(O)(C4)C2)C3)c(C)n1-c1ccccc1 | 215 to 220 °C
19 | CCCCCCCCCCNC(=O)CC#N | 78.5 to 80 °C
20 | OC(c1cc(Cl)cc(Cl)c1)c1cc(Cl)cc(Cl)c1 | 126 °C
21 | CC(=NO)c1ccc2c(c1)CCCN2C(=O)OC(C)(C)C | 127 to 129 °C
22 | Nc1ccc(CON=Cc2csc(N)n2)cc1 | 181 to 183 °C
23 | CN1CCN(c2ccc(C(=O)N[C@H]3CC[C@H](CCN4CCC(c5cccc6c5CCO6)CC4)CC3)cc2)CC1 | 241 °C

More lines, now with the values ahead:

Row | melting point | Compound
24 | 143 to 144 °C | COC1(C(O)CN2CCC(n3c(=O)[nH]c4ccccc43)CC2)COc2ccccc2O1 (stereo not given)
25 | 161 to 163 °C | O=C1CCC(N2C(=O)c3cccc(CNC(=O)c4ccc(Cl)c(Cl)c4)c3C2=O)C(=O)N1 (stereo not given)
26 | 252 to 253 °C | CCCC(=O)c1cnc2c(OC)cccc2c1Nc1ccc(O)cc1C
27 | 185 to 186 °C | CC(C)CC(=O)Nc1c(C(=O)c2cccc(Cl)c2)[nH]c2cc(Cl)ccc12
28 | 127 to 129 °C | O=C(O)C(CC1CCCCC1)NS(=O)(=O)c1ccc(Cl)cc1 (racemic)
29 | 210 to 218 °C | CC(C)c1ccc(S(=O)(=O)Nc2ccccc2C(=O)NCCc2ncc[nH]2)cc1
30 | 175 to 177 °C | COc1ccccc1N1CCN(CCNC(=O)CCN2CC=C(c3c[nH]c4cc(F)ccc34)CC2)CC1
31 | 197 to 198 °C | Cc1cc(-c2nc(C(F)(F)F)cn2-c2ccc(S(C)(=O)=O)c(F)c2)ccc1-c1cscn1
32 | 110 °C | CC(C)(C)OC(=O)[C@@H]1CSC(Cc2ccccc2)N1C(=O)CNC(=O)Nc1cccc(CC(=O)O)c1 (stereo not given in full)
33 | 183 to 185 °C | NC(=O)CNC(=O)c1ccccc1I
34 | 137 to 138 °C | CCCCc1cn(CCc2cccs2)c(=O)n1Cc1ccc(-c2ccccc2-c2nnn[nH]2)nc1
35 | 115 to 117 °C | C(=Cc1ccccc1)CN1CCN(C2c3ccccc3Sc3ccccc32)CC1
36 | 180 °C | CN(C)CCOc1ccccc1-c1cc(NC(N)=O)c(C(N)=O)s1
37 | 152 to 157 °C | O=C1C(=Cc2ccncc2)C(=O)c2ccccc21
38 | 171 to 172 °C | Cc1cccc2c1nc(-c1ccncc1)n2Cc1c(F)cccc1F
39 | 146 to 148 °C | COCCOc1ccc(/C=C/C(=O)NS(=O)(=O)CC(F)(F)F)c(Oc2ncc(C(F)(F)F)cc2Cl)c1
40 | 140 °C | CCCc1nnc(-c2ccc([N+](=O)[O-])cc2)n1-c1ccc(OC)cc1
